One series concerns aniline hydroxylase. Kind of series: activity of aniline hydroxylase (p-aminophenol formation). The format is in vivo, rat (female H. Wistar). The following applies: 40 mg./kg. single oral dose, 24 hours; control 20.3 ± 0.88; ± S.E. The method, then: (§1) The enzyme inducing activity of the compounds of the formula (I) was further tested by determining the activity of the polysubstrate monooxygenase enzyme system of the liver after treatment with a placebo and the compounds according to the invention, respectively. Female H. Wistar rats each weighing 50 to 60 g. were administered a single 40 mg./kg. dose of the test compounds, orally. 24 hours after treatment the animals were decapitated and the livers were eliminated. […] The cytochrome P-450 concentration was determined from the carbon monoxide differential spectrum of a reduced microsomal suspension (Omura T. et al.: J. Biol. Chem. 239, 2370 (1964)), the quantity of cytochrome b-5 was determined from a NADH differential spectrum (Raw J. et al.: J. Biol. Chem. 234, 1867 (1959)). The activity of NADPH: ferricytochrome C (P-450) reductase (E.C. 1.6.2.4) was measured according to Williams C. […] The activity of aniline hydroxylase was determined according to Chhabra R. S. et al.: Toxicol. […] Pharmacol., 22, 50 (1972) by measuring the velocity of p-aminophenol formation, while the […] activity was determined on the basis of the quantity of formaldehyde formed, following the method of Gourlay G. K. et al.: Biochem. Pharmacol., 27, 965 (1978). […]

The next series can be described thus: acute toxicity. Details: species or system rat (H-Wistar, both sexes). Conditions: rat, in vivo, po; for mortality at 336 h: 500 mg./kg. p.o. single dose, 14 days observation, n=10, read-out: Perished animals. As for the experimental part: The acute toxicity of the compounds of the formula (I) was determined on H-Wistar rats of both sexes, each weighing 160 to 180 g. The compounds were administered in a single 500 mg./kg. dose, orally.

Another series has as its system liver. The series can be described thus: Relative weight of liver after treatment. The format is in vivo, rat (female H. Wistar). The following applies: 40 mg./kg. single oral dose, 24 hours; control 4.3 ± 0.17; ± S.E. The method, then:
as §1

For series [1], the system named is NADPH: ferricytochrome C (P-450) reductase (E.C. 1.6.2.4). Kind of series: activity of NADPH: ferricytochrome C (P-450) reductase. The format is in vivo, rat (female H. Wistar). The following applies: 40 mg./kg. single oral dose, 24 hours; control 4686 ± 286.2; ± S.E. The method, then:
as §1

The test system of a further series is Cytochrome P-450. Kind of series: Cytochrome P-450 concentration from carbon monoxide differential spectrum. The format is in vivo, rat (female H. Wistar). Conditions: 40 mg./kg. single oral dose, 24 hours; control 12.8 ± 0.63; ± S.E. The method, then:
as §1

The test system of a further series is Cytochrome b-5. The series can be described thus: Cytochrome b-5 quantity from NADH differential spectrum. The format is in vivo, rat (female H. Wistar). The following applies: 40 mg./kg. single oral dose, 24 hours; control 8.6 ± 0.43; ± S.E. As for the experimental part: as §1
The test system of another series is hexobarbital oxidase. Kind of series: in vivo measurement of hexobarbital oxidase activity (hexobarbital narcosis period). The following applies: 40 mg./kg. oral single dose, n=10, mean ± S.E.; for Narcosis period in % of the control, 1 hour: hexobarbital sodium 60 mg./kg. i.v. 1 hour after; for Narcosis period in % of the control, 24 hours: hexobarbital sodium 60 mg./kg. i.v. 24 hours after. Details: species or system rat (female Hann.-Wistar). As for the experimental part:
The enzyme-inducing potency of the new compounds according to the invention was determined by several methods. One of these methods was the in vivo measurement of hexobarbital oxidase activity.
To determine the change of hexobarbital oxidase activity female Hann.-Wistar rats, each weighing 50 to 60 g. were treated orally with a single 40 mg./kg. dose of the active agent. One and 24 hours after the administration of the active agent, respectively, the animals were narcotized with a 60 mg./kg. i.v. dose of hexobarbital sodium, and the time elapsed until complete wakening from ceasing of the righting reflex was measured (Noordhoex J.: Eur. J. Pharmacol, 3, 242, 1968). As a reference compound phenobarbital was used. The data were recorded, and the mean values, the standard errors, as well as the percentage increase with respect to the control were calculated for each group. Abbreviations:
S.E.=standard error of the mean value,
The control group was treated with a placebo. [formula] A=α-ethyl-α-(3-trifluoromethylphenyl)-4-[2-(piperidin-l-yl)-eth oxy]-benzylalcohol;

For series [2], the system named is aminopyridine demethylase. Kind of series: aminopyridine demethylase activity (formaldehyde formed). The format is in vivo, rat (female H. Wistar). The following applies: 40 mg./kg. single oral dose, 24 hours; control 254.8 ± 7.47; ± S.E. As for the experimental part: as §1
For a further series, the system named is Microsomal protein. Kind of series: Microsomal protein of the liver after treatment. The format is in vivo, rat (female H. Wistar). The following applies: 40 mg./kg. single oral dose, 24 hours; control 29.3 ± 1.01; ± S.E. As for the experimental part:
as §1

Another series concerns mice and rats. The format is in vivo. The following applies: orally, even in a dose of 40 mg./kg. The text has this:
The central nervous activities of the compounds according to the invention were examined on mice and rats with the following methods: electroshock (Swinyard, E. A., Brown, W. C., Goodman, L. S.: J. Pharmacol. Exp. Ther. 106, 319 (1952)), metrazole spasm (Everett, G. M., Richards, R. K.: J. Pharmacol. Exp. Ther. 81, 402 (1944)), thiosemicarbazide spasm ( Da Venzo, J. P., Greig, M. E., Cormin, M. A.: Amer. J. Physiol. 201, 833 (1961)), strychnine spasm (Kerley, T. L., Richards, A. G., Begley, R. W., Abreu, B. B., Wesver, L. C.: J. Pharmacol. Exp. Ther. 132, 360 (1961)), nicotine spasm (Stone, C. A., Mecklenburg, K. L., Torhans, M. L.: Arch. Int. Pharmacodyn. 117, 419 (1958)), rotarod test (Kinnard, W. C., Carr, C. J.: J. Pharmacol. Expt. Ther. 121, 354 (1957)), physostigmine lethality preventing effect (Nose, T., Kojima, M.: Europ. J. Pharmacol. 10, 83 (1970)), yohimbine potentiation effect (Quinton, R. M.: Brit. J. Pharmacol. 21, 51 (1963)), and analgesic activity (Bianchi, G., Francheschini, J.: Brit. J. Pharm. Chemother. 9, 280 (1954)).
As a reference substance, phenobarbital was used. […].

Consider five molecules from patent publication US4645774A, “Aminoethoxybenzylalcohol derivatives, process for their preparation and pharmaceutical compositions containing them” (Richter Gedeon Vegyeszeti Gyar Rt, priority 1982, dated 1987).

One may read the LD50 as the dose at which mortality reaches 50%. The low end stands for greater toxicity, the high end for lower toxicity.

The structures appear in SMILES notation.

For `CCC(O)(c1ccc(F)cc1)c1ccc(OCCN2CCCCC2)cc1` (stereo not drawn) [D, α-Ethyl-α-(4-fluorophenyl)-4-[2-(piperidin-1-yl)-ethoxy]-benzylalcohol], the “Aniline hydroxylase (nmoles/g. of liver/min.), % of control” value in the series on aniline hydroxylase turned out to be 131 ± 5.9%. In addition, the mortality at 336 h in “acute toxicity” came to 0%. Besides, the “Relative weight of liver (g./100 g. of body weight), % of control” value with liver is 122 ± 4.9%. For the same molecule, the “c(P-450)reductase (nmoles/g. of liver/min.), % of control” value in [1] came out at 178 ± 16.2%. The “Cytochrome P-450 (nmoles/g. of liver), % of control” value in the series with Cytochrome P-450 was 163 ± 8.7%. Further, in the series on Cytochrome b-5, the “Cytochrome b-5 (nmoles/g. of liver), % of control” value was determined as 116 ± 4.8%. For the same molecule, in the series on hexobarbital oxidase, the “Narcosis period in % of the control, 1 hour” value (“Narcosis period in % … 1 hour” below) came to 120 ± 4.2% and the “Narcosis period in % of the control, 24 hours” value (shortened to “Narcosis period in % … 24 hours”) is 53 ± 3.7%. Further, the “Aminopyridine demethylase (nmoles/g./min.), % of control” value in [2] is listed as 123 ± 7.8%. In addition, the “Microsomal protein (mg./g. of liver), % of control” value with Microsomal protein amounted to 111 ± 4.2%.

Regarding `CCC(O)(c1ccc(OCCN(C)C)cc1)c1cccc(C(F)(F)F)c1` (stereo not drawn) [B, α-ethyl-α-(3-trifluoromethylphenyl)-4-[2-(dimethylamino)-ethoxy]-benzylalcohol], in the series “acute toxicity”, the mortality at 336 h is 0%. Moreover, in the series on hexobarbital oxidase, the “Narcosis period in % … 1 hour” value came to 180 ± 10.0% and the “Narcosis period in % … 24 hours” value came out at 49 ± 3.3%.

For the molecule `CCC(O)(c1ccc(OCCN2CCCC2)cc1)c1ccccc1OC` (stereo not drawn) [C, α-Ethyl-α-(2-methoxyphenyl)-4-[2-(pyrrolidin-1-yl)-ethoxy]-benzylalcohol], the mortality at 336 h in “acute toxicity” amounted to 0%. Further, in the series with hexobarbital oxidase, the “Narcosis period in % … 1 hour” value is recorded as 113 ± 12.0% and the “Narcosis period in % … 24 hours” value amounted to 57 ± 7.8%.

`CCC(O)(c1ccc(OCCN2CCCCC2)cc1)c1cccc(C(F)(F)F)c1` (stereo not drawn) [A, α-Ethyl-α-(3-trifluoromethylphenyl)-4-[2-(piperidin-1-yl)-ethoxy]-benzylalcohol]: the mortality at 336 h in the series “acute toxicity” was 0%. Further, in the series on hexobarbital oxidase, the “Narcosis period in % … 1 hour” value came out at 177 ± 5.0% and the “Narcosis period in % … 24 hours” value was 49 ± 0.7%.

In “acute toxicity” (footnote x of Table 3), `CCC1(c2ccccc2)C(=O)NC(=O)NC1=O` [phenobarbital, reference compound] displayed an LD50 of 245 mg/kg. In the series with mice and rats, the central nervous activities result is “strong anticonvulsive muscle-coordinating and sedative effects”. Besides, in the series with hexobarbital oxidase, the “Narcosis period in % … 1 hour” value worked out at 250 ± 15.8% and the “Narcosis period in % … 24 hours” value turned out to be 60 ± 7.3%.
